# Measurements taken from ChEMBL document CHEMBL4428063, “Novel Pyrimidine Toll-like Receptor 7 and 8 Dual Agonists to Treat Hepatitis B Virus” (J Med Chem, 2016).
# The source made the active and inactive calls. No cut-off for these calls is given here.
# Experiments:
# [1] = target: T1, Toll-like receptor 7 (Homo sapiens) (UniProt Q9NYK1); experiment: Agonist activity at human TLR7 expressed in HEK293 cells measured after 6 hrs by NF-kappaB luciferase reporter gene assay; type: cell-based
# T1 sequence (whole entry): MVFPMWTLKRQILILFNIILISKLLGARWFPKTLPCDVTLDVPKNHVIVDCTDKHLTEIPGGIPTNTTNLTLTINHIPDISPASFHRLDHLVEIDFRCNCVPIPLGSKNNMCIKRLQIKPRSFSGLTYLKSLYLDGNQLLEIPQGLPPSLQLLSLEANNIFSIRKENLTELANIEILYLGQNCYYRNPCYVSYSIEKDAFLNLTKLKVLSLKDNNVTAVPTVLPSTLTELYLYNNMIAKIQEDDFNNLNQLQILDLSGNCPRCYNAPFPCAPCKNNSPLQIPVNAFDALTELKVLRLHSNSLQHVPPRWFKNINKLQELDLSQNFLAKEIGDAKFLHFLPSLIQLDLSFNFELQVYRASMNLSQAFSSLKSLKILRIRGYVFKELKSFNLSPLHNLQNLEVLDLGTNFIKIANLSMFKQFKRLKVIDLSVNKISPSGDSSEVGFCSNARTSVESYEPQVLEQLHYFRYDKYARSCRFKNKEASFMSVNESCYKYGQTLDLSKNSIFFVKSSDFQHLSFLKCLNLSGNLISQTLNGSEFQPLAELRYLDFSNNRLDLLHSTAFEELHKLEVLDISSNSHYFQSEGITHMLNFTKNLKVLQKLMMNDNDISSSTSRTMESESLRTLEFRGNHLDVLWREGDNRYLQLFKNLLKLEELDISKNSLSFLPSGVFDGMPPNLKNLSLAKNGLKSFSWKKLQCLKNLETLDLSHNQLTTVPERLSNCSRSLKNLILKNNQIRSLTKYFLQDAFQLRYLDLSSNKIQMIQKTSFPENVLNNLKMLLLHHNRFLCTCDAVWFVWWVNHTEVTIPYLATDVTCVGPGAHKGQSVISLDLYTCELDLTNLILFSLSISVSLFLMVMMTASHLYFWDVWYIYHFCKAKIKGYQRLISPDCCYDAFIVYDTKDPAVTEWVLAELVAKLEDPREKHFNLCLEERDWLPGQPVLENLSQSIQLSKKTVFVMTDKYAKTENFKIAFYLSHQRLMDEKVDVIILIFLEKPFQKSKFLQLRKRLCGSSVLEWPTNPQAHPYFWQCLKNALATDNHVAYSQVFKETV
# [2] = Fraction absorbed in Sprague-Dawley rat plasma at 10 mg/kg, po; type: ADME, organism-based; conditions: read-out: Fabs
# [3] = Ratio of drug level in Sprague-Dawley rat liver to plasma at 10 mg/kg, po; type: ADME, organism-based; conditions: liver and plasma
# [4] = Intrinsic clearance in C57Bl/6 mouse liver microsomes assessed per mg protein at 1 uM measured after 60 mins; type: ADME, Microsome; conditions: read-out: CLH
# [5] = Intrinsic clearance in Sprague-Dawley rat liver microsomes assessed per mg protein at 1 uM measured after 60 mins; type: ADME, Microsome; conditions: read-out: CLH
# [6] = Plasma concentration in C57Bl/6 mouse infected with HBV genotype D at 5 mg/kg, po dosed once per week for 8 weeks administered 6 weeks after viral infection and measured on day 42 post 1 hr of dosage; type: ADME, organism-based; conditions: in vivo
# [7] = Cmax in cynomolgus monkey plasma at 3 mg/kg, administered through oral gavage measured after 24 hrs; type: ADME, organism-based, Macaca fascicularis; set-up: dose 3 mg/kg, route oral
# [8] = AUC(0 to last) in cynomolgus monkey plasma at 3 mg/kg, administered through oral gavage measured after 24 hrs; type: ADME, organism-based, Macaca fascicularis; set-up: dose 3 mg/kg, time 0 - last, route oral
# [9] = Cmax in cynomolgus monkey plasma at 9 mg/kg, administered through oral gavage measured after 24 hrs; type: ADME, organism-based, Macaca fascicularis; set-up: dose 9 mg/kg, route oral
# [10] = Tmax in cynomolgus monkey plasma at 9 mg/kg, administered through oral gavage measured after 24 hrs; type: ADME, organism-based, Macaca fascicularis
# [11] = Cmax in cynomolgus monkey plasma at 30 mg/kg, administered through oral gavage measured after 24 hrs; type: ADME, organism-based, Macaca fascicularis; set-up: dose 30 mg/kg, route oral
# human MDR1 = experiment: Apparent permeability across apical to basolateral side in MDCK cells expressing human MDR1 at 1 uM by LC-MS/MS analysis; type: ADME, cell-based, Canis lupus familiaris; conditions: dog
# [12] = target: T1, Toll-like receptor 7 (Homo sapiens); experiment: Activation of TLR7 in human PBMCs incubated for overnight duration followed by compound-treated cell supernatant conditioned media transfer to HCV1b transfected human HuH7-luc/neo replicon cells assessed as induction of INFalpha-mediated suppression of virus growth by firefly-luciferase reporter gene assay
# [13] = target: Toll-like receptor 5 (Homo sapiens) (UniProt O60602); experiment: Agonist activity at wild-type human TLR5 expressed in HEK293 cells up to 25 uM measured after 6 hrs by NF-kappaB luciferase reporter gene assay; type: cell-based
# Sequence of Toll-like receptor 5 (Homo sapiens) (O60602 whole entry): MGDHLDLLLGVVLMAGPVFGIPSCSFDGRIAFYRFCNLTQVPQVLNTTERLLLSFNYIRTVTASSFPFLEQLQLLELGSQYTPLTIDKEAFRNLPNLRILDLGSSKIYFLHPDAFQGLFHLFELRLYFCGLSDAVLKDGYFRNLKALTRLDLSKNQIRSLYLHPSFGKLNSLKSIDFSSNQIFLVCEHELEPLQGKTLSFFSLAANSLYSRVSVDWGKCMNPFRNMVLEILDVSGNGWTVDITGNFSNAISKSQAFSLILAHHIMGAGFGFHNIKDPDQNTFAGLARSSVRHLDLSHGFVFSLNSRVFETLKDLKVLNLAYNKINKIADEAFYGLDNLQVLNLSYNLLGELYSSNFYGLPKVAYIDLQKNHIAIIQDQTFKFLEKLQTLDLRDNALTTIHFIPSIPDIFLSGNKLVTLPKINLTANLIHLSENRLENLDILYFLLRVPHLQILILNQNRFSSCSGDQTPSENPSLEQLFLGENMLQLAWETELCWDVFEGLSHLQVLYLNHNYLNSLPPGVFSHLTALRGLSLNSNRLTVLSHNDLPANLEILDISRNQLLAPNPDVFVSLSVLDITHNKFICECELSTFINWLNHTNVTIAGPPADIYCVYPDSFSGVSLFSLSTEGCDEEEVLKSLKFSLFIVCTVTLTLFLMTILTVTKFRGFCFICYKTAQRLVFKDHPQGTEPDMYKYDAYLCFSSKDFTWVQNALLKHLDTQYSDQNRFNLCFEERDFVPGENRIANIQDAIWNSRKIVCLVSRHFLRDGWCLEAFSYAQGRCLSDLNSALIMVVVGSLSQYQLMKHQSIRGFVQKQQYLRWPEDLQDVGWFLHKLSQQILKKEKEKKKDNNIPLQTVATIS
# [14] = target: T2, Toll-like receptor 6 (Homo sapiens) (UniProt Q9Y2C9); experiment: Agonist activity at wild-type human TLR6 expressed in HEK293 cells up to 25 uM measured after 6 hrs by NF-kappaB luciferase reporter gene assay; type: cell-based
# T2 sequence (whole entry): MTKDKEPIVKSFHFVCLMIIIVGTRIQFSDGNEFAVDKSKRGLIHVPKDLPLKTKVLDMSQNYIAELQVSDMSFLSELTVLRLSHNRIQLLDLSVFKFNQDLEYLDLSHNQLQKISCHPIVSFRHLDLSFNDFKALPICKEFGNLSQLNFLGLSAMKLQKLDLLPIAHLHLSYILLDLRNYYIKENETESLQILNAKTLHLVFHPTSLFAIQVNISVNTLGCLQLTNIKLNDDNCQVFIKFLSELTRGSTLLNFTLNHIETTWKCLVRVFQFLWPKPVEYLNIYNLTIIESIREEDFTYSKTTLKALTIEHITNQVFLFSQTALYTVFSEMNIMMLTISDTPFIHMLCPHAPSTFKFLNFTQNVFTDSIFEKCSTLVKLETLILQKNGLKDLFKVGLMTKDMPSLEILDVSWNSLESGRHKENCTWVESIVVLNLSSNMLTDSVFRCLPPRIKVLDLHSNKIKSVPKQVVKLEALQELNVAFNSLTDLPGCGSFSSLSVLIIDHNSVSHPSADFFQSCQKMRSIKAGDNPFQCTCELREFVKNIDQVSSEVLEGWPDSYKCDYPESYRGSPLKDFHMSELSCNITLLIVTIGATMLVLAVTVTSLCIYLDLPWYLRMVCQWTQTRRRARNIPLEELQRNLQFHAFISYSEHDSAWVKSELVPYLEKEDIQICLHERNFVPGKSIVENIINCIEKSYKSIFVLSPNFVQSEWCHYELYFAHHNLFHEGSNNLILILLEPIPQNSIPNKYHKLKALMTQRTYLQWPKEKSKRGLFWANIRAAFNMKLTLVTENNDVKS
smiles,measurement,setting,value
CCCC[C@@H](CCO)Nc1nc(N)ncc1OC,LED,[1],1.6 µM
same,Fa,[2],55%
same,Kp,[3],14
same,microsomal CLint at 1 µM,[4],5 µL/min/mg
same,microsomal CLint at 1 µM,[5],60 µL/min/mg
same,Cp,[6],245 ng/mL
same,Cmax,[7],7 ng/mL
same,AUC(0-t) at 24 h,[8],11 ng·h/mL
same,Cmax,[9],34 ng/mL
same,Tmax,[10],0.5 to 2 h
same,Cmax,[11],355 ng/mL
same,Papp A→B at 1 µM,human MDR1,23 ×10⁻⁶ cm/s
same,LED,[12],0.5 µM
same,Activity,[13],inactive
same,Activity,[14],inactive
